Source: ChEMBL document CHEMBL3734721 (J Med Chem, 2015)

Assays:
D(2) dopamine receptor = D(2) dopamine receptor (Homo sapiens, UniProt P14416); assay: Agonist activity at human wild-type D2 receptor expressed in CHO-K1 cells assessed as cAMP level by HTRF assay; format: functional, cell-based
Mu-type opioid receptor [1] = molecular target: T1, Mu-type opioid receptor (Homo sapiens, UniProt P35372); assay: Agonist activity at human wild-type opioid-mu receptor expressed in CHO-K1 cells assessed as cAMP level by HTRF assay; format: functional, cell-based
Vasopressin V1a receptor = Vasopressin V1a receptor (Homo sapiens, UniProt P37288); assay: Antagonist activity at human wild-type AVPR1A receptor expressed in CHO-K1 cells assessed as vassopressin-induced calcium by FDSS assay; format: functional, cell-based
[2] = Chemical stability of compound in buffer at pH 7.4 assessed as compound remaining at 10 mg/ml after 2 days; format: physicochemical; conditions: read-out: Stability
[3] = Intrinsic clearance in rat liver microsomes at 1 uM by HPLC/MS/MS analysis; format: ADME; conditions: read-out: CLH
[4] = molecular target: Beta-1 adrenergic receptor (Homo sapiens, UniProt P08588); assay: Antagonist activity at human beta1 receptor expressed in CHO-K1 cells assessed as isoproterenol-induced cAMP level by HTRF assay; format: functional, cell-based
[5] = molecular target: T2, Alpha-2C adrenergic receptor (Homo sapiens, UniProt P18825); assay: Antagonist activity at human wild-type alpha 2C receptor expressed in CHO-K1 cells assessed as epinephrine-induced cAMP by HTRF assay; format: functional, cell-based
T2 sequence (P18825 whole entry): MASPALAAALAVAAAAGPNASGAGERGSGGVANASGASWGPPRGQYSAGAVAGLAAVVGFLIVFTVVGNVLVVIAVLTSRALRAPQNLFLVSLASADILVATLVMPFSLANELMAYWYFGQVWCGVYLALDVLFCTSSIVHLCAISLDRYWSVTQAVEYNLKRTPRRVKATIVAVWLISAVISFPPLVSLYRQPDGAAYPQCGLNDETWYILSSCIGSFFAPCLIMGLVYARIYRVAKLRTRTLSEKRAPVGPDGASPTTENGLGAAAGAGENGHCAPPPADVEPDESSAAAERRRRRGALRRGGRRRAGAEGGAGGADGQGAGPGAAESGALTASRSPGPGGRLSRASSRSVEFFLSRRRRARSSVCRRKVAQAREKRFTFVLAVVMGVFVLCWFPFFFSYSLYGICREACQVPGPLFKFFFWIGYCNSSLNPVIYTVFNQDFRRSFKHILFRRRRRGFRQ

[6] = Chemical stability of compound in DMSO assessed as compound remaining at 10 mg/ml after 2 days at room temperature; format: physicochemical; conditions: read-out: Stability
[7] = molecular target: Kappa-type opioid receptor (Homo sapiens, UniProt P41145); assay: Antagonist activity at human wild-type opioid-kappa 1 receptor expressed in CHO-K1 cells assessed as U50488-induced cAMP by HTRF assay; format: functional, cell-based
[8] = Fraction unbound in human plasma at 5 uM after 4.5 hrs by LC-MS/MS analysis; format: ADME, cell-free
[9] = molecular target: T3, 5-hydroxytryptamine receptor 2C (Homo sapiens, UniProt P28335); assay: Agonist activity at human 5-HT2C receptor expressed in CHO-K1 cells assessed as calcium level by FDSS assay; format: functional, cell-based
T3 sequence (P28335 whole entry): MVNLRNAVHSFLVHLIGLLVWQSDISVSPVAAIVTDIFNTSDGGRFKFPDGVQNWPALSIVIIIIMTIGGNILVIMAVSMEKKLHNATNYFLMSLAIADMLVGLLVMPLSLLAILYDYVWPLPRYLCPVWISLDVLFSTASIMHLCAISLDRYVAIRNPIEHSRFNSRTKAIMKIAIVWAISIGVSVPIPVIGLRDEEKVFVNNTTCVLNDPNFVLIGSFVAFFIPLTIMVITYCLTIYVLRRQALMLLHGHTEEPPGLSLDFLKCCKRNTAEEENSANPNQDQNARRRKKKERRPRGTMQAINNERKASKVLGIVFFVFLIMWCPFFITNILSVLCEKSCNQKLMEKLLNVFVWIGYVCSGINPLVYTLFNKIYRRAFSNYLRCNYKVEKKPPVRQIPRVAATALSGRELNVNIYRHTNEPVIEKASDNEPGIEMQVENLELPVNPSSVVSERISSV

Liver microsome = assay: Metabolic stability in human liver microsomes assessed as GSH adduct formation at 40 uM for 1 hr by LC/MS analysis; format: ADME
Mu-type opioid receptor [10] = molecular target: T1, Mu-type opioid receptor; assay: Antagonist activity at human wild-type opioid-mu receptor expressed in CHO-K1 cells assessed as DAMGO-induced cAMP by HTRF assay; format: functional, cell-based
[11] = molecular target: T4, Muscarinic acetylcholine receptor M2 (Homo sapiens, UniProt P08172); assay: Agonist activity at human wild-type M2 receptor expressed in CHO-K1 cells assessed as cAMP level by HTRF assay; format: functional, cell-based
T4 sequence (P08172 whole entry): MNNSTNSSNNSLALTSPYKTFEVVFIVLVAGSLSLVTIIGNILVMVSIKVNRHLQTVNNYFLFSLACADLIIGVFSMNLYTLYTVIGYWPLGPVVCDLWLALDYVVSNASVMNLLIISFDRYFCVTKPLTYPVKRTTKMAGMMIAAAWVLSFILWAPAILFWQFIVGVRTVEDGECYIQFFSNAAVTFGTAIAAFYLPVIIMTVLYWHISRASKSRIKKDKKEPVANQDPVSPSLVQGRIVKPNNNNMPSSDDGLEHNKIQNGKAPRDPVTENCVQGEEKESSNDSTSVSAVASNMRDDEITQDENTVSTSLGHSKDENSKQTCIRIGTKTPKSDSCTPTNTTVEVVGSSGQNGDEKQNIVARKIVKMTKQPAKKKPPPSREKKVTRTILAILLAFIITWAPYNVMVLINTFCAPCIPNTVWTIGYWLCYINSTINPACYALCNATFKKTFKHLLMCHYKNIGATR

Cytochrome P450 3A4 = Cytochrome P450 3A4 (Homo sapiens, UniProt P08684); assay: Inhibition of human CYP3A4 by LC-MS analysis; format: ADME
[12] = Fraction unbound in rat brain at 5 uM after 5 hrs by LC-MS/MS analysis; format: ADME, tissue-based
Adenosine receptor A2a = Adenosine receptor A2a (Homo sapiens, UniProt P29274); assay: Agonist activity at human wild-type A2A receptor expressed in CHO-K1 cells assessed as cAMP level by HTRF assay; format: functional, cell-based
Cytochrome P450 2C9 = Cytochrome P450 2C9 (Homo sapiens, UniProt P11712); assay: Inhibition of human CYP2C9 by LC-MS analysis; format: ADME
Adenosine receptor A3 = molecular target: T5, Adenosine receptor A3 (Homo sapiens, UniProt P0DMS8); assay: Agonist activity at human wild-type A3 receptor expressed in CHO-K1 cells assessed as cAMP level by HTRF assay; format: functional, cell-based
T5 sequence (P0DMS8 whole entry): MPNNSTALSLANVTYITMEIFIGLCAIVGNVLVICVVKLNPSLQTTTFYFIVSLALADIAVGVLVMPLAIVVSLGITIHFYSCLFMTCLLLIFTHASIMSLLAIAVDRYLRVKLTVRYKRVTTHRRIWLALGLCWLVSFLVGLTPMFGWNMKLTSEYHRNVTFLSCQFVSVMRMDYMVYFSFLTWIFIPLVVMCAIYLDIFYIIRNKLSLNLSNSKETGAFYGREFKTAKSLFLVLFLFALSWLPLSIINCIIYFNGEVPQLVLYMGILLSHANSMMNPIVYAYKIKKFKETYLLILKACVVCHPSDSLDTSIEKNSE

T1 sequence (P35372 whole entry): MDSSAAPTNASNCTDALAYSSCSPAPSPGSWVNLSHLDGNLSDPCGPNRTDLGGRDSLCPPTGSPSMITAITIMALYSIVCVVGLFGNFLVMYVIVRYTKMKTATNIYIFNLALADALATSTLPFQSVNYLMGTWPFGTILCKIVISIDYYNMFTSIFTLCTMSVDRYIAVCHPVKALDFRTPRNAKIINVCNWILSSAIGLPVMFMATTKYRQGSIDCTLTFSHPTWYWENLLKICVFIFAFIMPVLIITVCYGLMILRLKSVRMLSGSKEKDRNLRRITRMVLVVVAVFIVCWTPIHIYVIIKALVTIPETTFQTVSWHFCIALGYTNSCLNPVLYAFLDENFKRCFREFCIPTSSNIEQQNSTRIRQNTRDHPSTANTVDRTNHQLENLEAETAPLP
Sequence of Kappa-type opioid receptor (P41145 whole entry): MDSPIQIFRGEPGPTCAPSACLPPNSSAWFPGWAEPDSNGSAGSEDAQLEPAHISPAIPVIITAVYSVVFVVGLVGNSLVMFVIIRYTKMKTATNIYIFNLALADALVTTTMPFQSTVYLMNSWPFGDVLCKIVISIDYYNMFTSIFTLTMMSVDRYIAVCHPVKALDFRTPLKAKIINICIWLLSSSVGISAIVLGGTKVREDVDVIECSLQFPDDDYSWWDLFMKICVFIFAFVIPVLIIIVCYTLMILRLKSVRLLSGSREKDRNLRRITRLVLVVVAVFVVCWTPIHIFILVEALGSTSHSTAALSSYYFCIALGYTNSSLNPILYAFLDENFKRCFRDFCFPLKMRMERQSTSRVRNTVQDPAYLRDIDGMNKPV
Sequence of Adenosine receptor A2a (P29274 whole entry): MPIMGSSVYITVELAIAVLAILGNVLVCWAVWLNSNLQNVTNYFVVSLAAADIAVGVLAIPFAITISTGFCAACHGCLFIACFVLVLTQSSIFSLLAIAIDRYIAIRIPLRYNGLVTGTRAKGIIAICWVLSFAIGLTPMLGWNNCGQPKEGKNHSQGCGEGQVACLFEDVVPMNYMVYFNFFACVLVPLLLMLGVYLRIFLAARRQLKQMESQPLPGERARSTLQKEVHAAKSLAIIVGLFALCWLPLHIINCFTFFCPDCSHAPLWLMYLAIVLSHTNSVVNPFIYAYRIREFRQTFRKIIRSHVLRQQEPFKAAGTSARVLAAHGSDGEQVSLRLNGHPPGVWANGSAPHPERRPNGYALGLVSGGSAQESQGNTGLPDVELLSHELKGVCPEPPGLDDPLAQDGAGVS
Sequence of D(2) dopamine receptor (P14416 whole entry): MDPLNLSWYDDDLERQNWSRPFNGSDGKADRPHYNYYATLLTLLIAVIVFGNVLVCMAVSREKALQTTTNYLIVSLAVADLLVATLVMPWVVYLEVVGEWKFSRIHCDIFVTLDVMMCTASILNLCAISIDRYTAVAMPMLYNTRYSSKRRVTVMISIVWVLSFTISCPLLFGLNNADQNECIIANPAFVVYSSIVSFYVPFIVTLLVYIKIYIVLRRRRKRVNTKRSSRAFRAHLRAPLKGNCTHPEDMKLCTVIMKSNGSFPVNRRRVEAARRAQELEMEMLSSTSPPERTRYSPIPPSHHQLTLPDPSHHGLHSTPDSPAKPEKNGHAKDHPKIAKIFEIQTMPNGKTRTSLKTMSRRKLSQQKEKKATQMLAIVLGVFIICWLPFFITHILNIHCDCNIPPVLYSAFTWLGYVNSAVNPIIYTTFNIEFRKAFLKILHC
Sequence of Cytochrome P450 2C9 (P11712 whole entry): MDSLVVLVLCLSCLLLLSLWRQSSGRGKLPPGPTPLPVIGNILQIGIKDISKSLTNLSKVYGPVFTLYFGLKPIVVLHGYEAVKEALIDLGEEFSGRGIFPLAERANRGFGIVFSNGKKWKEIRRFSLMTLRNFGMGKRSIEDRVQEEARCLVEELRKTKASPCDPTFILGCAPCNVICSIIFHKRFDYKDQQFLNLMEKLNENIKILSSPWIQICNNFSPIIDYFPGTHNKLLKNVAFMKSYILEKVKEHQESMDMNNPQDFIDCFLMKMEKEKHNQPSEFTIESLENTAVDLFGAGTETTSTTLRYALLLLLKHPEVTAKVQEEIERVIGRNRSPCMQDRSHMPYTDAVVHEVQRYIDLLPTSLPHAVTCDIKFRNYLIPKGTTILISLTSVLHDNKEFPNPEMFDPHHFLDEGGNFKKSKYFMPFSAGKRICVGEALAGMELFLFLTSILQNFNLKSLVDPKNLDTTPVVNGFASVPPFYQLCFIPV
Sequence of Beta-1 adrenergic receptor (P08588 whole entry): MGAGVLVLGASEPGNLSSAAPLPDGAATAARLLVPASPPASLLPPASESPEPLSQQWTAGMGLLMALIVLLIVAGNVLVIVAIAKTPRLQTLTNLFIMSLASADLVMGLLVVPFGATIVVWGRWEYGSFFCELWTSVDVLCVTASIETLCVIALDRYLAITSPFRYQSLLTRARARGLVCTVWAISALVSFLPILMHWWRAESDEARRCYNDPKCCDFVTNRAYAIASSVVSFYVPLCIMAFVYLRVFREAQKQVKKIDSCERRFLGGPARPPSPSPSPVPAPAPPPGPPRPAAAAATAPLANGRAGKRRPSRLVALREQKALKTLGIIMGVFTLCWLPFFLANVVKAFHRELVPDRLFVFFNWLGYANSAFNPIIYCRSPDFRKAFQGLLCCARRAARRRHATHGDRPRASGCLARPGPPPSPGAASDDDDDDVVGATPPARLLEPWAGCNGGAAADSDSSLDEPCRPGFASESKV
Sequence of Cytochrome P450 3A4 (P08684 whole entry): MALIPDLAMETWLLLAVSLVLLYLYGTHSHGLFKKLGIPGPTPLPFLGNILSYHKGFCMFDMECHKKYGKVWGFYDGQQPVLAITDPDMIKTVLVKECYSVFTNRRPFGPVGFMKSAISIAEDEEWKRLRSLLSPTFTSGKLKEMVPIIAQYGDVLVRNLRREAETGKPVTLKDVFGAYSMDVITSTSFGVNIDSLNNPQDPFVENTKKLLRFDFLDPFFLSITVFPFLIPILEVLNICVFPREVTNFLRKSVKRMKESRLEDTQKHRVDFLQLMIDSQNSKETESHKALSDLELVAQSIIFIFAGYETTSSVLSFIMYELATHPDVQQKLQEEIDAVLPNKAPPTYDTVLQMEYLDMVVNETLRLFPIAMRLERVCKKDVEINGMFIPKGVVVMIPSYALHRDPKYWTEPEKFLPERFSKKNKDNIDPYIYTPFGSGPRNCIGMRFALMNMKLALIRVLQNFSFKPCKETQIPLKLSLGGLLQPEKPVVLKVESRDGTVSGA
Sequence of Vasopressin V1a receptor (P37288 whole entry): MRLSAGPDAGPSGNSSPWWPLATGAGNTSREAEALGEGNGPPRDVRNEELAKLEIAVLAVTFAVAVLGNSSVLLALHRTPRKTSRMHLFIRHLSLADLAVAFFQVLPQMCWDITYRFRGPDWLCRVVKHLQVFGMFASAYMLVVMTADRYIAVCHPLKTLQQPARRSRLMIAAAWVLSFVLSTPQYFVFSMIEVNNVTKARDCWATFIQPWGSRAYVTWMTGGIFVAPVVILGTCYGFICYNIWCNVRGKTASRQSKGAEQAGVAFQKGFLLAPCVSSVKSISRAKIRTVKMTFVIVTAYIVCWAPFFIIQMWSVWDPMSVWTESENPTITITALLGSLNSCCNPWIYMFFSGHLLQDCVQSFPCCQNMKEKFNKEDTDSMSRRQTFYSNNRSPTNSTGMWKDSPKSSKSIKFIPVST

| EC50 (D(2) dopamine receptor) [µM] | EC50 (Mu-type opioid receptor [1]) [µM] | IC50 (Vasopressin V1a receptor) [µM] | remaining at 48 h, 10 mg/ml [2] [%] | microsomal CLint at 1 µM [3] [µL/min/mg] | IC50 [4] [µM] | IC50 [5] [µM] | remaining at 48 h, 10 mg/ml [6] [%] | IC50 [7] [µM] | fraction unbound at 4.5 h, 5 µM [8] | EC50 [9] [µM] | Stability (Liver microsome) | IC50 (Mu-type opioid receptor [10]) [µM] | EC50 [11] [µM] | IC50 (Cytochrome P450 3A4) [µM] | fraction unbound at 5 h, 5 µM [12] | EC50 (Adenosine receptor A2a) [µM] | IC50 (Cytochrome P450 2C9) [µM] | EC50 (Adenosine receptor A3) [µM] | Compound |
| --- | --- | --- | --- | --- | --- | --- | --- | --- | --- | --- | --- | --- | --- | --- | --- | --- | --- | --- | --- |
| > 5.01 | > 5.01 | > 5.01 | 96 | > 346 | 0.2 | > 5.01 | 96 | > 5.01 | 0.367 | > 5.01 | Stable | > 5.01 | > 5.01 | > 10 | 0.019 | > 5.01 | > 10 | > 5.01 | CB1C=Cc2c(cccc2OCC(O)CN(C)C)N1 (stereo not drawn) |
| > 5.01 | > 5.01 | > 5.01 | 91 | 289 | 0.631 | > 5.01 | 96 | > 5.01 | 0.179 | > 5.01 | Stable | > 5.01 | > 5.01 | > 10 | 0.0055 | > 5.01 | > 10 | > 5.01 | CB1C=Cc2cccc(OCC(O)CNC(C)C)c2N1 (stereo not drawn) |
